# Results reported in US20010003121A1, “Novel compounds” (AstraZeneca UK Limited, priority 1997, published 2001).
# Structures can show the parent of a compound that is named as a salt.
row,melting point,SMILES
1,185 to 186 °C,"O=C(O)COc1ccc(Sc2ncccc2C(=O)NCC23CC4CC(CC(C4)C2)C3)cc1 [Example 47, 3-[[(Tricyclo[3.3.1.1^3,7]dec-1-ylmethyl)amino]carbonyl]pyridyl-2-(4-phenylthio) oxyacetic acid]"
2,153 °C,"O=C(NCC12CC3CC(CC(Cl)(C3)C1)C2)c1ccccc1Cl [Example 76, 2-Chloro-N-(3-chloro-tricyclo[3.3.1.1^3,7]dec-1-ylmethyl)-benzamide]"
3,143 °C (dec.),"O=C(NCC12CC3CC(CC(C3)C1)C2)c1cc(NCCNCCO)ccc1Cl (as salt: hydrochloride) [Example 71, 5-(N-(2-Hydroxyethyl)-2-aminoethyl)amino-2-chloro-N-(tricyclo[3.3.1.1^3,7]dec-1-ylmethyl)-benzamide, dihydrochloride]"
4,160 to 162 °C,"CNc1ncccc1C(=O)NCC12CC3CC(CC(C3)C1)C2 (as salt: hydrochloride) [Example 34, 2-(Methylamino)-N-(tricyclo[3.3.1.1^3,7]dec-1-ylmethyl)-3-pyridine carboxamide, dihydrochloride]"
5,161 to 162 °C,"O=C(NCC12CC3CC(CC(C3)C1)C2)c1cc(Cl)ccc1Cl [Example 61, 2,5-Dichloro-N-(tricyclo[3.3.1.1^3,7]dec-1-ylmethyl)-benzamide]"
6,266 to 268 °C,"O=C(NCC12CC3CC(CC(C3)C1)C2)c1cccnc1NCCN1CCCC1 (as salt: hydrochloride) [Example 33, 2-(2-(Pyrrolidin-1-yl)ethylamino)-N-(tricyclo[3.3.1.1^3,7]dec-1-ylmethyl)-3-pyridine carboxamide, dihydrochloride]"
7,154 to 155 °C,O=C(NCC12CC3CC(CC(C3)C1)C2)c1cc(N2CC2)ccc1Cl
8,108 to 110 °C,"O=C(NCC12CC3CC(CC(C3)C1)C2)c1cccnc1Sc1cc(O)ccc1O [Example 44, 2-(2,5-Dihydroxyphenylthio)-N-(tricyclo[3.3.1.1^3,7]dec-1-ylmethyl)-3-pyridine carboxamide]"
9,194 to 195 °C,"O=C(NCC12CC3CC(CC(C3)C1)C2)c1ccccc1I [Example 8, 2-Iodo-N-(tricyclo[3.3.1.1^3,7]dec-1-methyl)-benzamide]"
10,161.4 to 161.5 °C,"O=C(NCC12CC3CC(CC(C3)C1)C2)c1cc(I)ccc1Cl [Example 80, 2-Chloro-5-iodo-N-(tricyclo[3.3.1.1^3,7]dec-1-ylmethyl)-benzamide]"
11,215 °C,"CN(C)CCNc1ccc(Cl)c(C(=O)NCC23CC4CC(CC(C4)C2)C3)c1 [Example 57, 2-Chloro-5-(N,N-dimethylamino)ethylamino-N-(tricyclo[3.3.1.1^3,7]dec-1-ylmethyl)-benzamide]"
12,144 to 147 °C,"CN(C)CCOc1ccc(Cl)c(C(=O)NCC23CC4CC(CC(C4)C2)C3)c1 [Example 60, 2-Chloro-5-(N,N-dimethylamino)ethyloxy-N-(tricyclo[3.3.1.1^3,7]dec-1-ylmethyl)-benzamide]"
13,197 to 198 °C,"O=C(NCC12CC3CC(CC(C3)C1)C2)c1cc(Cl)cc(Cl)c1 [Example 2, 3,5-Dichloro-N-(tricyclo[3.3.1.1^3,7]dec-1-methyl)-benzamide]"
14,220 °C (dec.),"Cc1c(N)cc(N)cc1C(=O)NCC12CC3CC(CC(C3)C1)C2 [Example 66, 3,5-Diamino-2-methyl-N-(tricyclo[3.3.1.1^3,7]dec-1-ylmethyl)-benzamide]"
15,165 to 167 °C,"O=C(NCC12CC3CC(CC(C3)C1)C2)c1ccccc1C(F)(F)F [Example 11, 2-(Trifluoromethyl)-N-(tricyclo[3.3.1.1^3,7]dec-1-methyl)-benzamide]"
16,125 to 127 °C,"O=C(NCCC12CC3CC(CC(C3)C1)C2)c1ccccc1Cl [Example 72, 2-Chloro-N-(2-[tricyclo[3.3.1.1^3,7]dec-1-yl]ethyl)-benzamide]"
17,234 to 235 °C,O=C(NCC12CC3CC(CC(C3)C1)C2)c1cccc(O)c1Cl [Example 59]
18,157 to 158 °C,"O=C(NCC12CC3CC(CC(C3)C1)C2)c1cccnc1N1CCCC1 (as salt: hydrochloride) [Example 36, 2-(Pyrrolidin-1-yl) N-(tricyclo[3.3.1.1^3,7]dec-1-ylmethyl)-3-pyridine carboxamide, dihydrochloride]"
19,153 °C,"Cc1ccc(C)c(C(=O)NCCC23CC4CC(CC(C4)C2)C3)c1 [Example 75, 2,5-Dimethyl-N-(2-[tricyclo[3.3.1.1^3,7]dec-1-yl]ethyl)-benzamide]"
20,63 to 64 °C,"O=C(NCC12CC3CC(CC(C3)C1)C2)c1cc(NCCNCC(O)c2ccccc2)ccc1Cl (stereo not shown) [Example 69, 5-(N-(2-Hydroxy-2-phenylethyl)-2-aminoethyl)amino-2-chloro-N-(tricyclo[3.3.1.1^3,7]dec-1-ylmethyl)-benzamide]"
21,206 to 207 °C,"O=C(NCC12CC3CC(CC(C3)C1)C2)c1ccc2[nH]ccc2c1 [Example 28, N-(tricyclo[3.3.1.1^3,7]dec-1-methyl)-5-indole carboxamide]"
22,185 °C,"O=C(NCC12CC3CC(CC(C3)C1)C2)c1cccc([N+](=O)[O-])c1Cl [Example 52, 2-Chloro-3-nitro-N-(tricyclo[3.3.1.1^3,7]dec-1-ylmethyl)-benzamide]"

row,melting point,SMILES
1,149 to 151 °C,"O=C(NCC12CC3CC(CC(C3)C1)C2)c1cccc(F)c1Cl [Example 41, 2-Chloro-3-fluoro-N-(tricyclo[3.3.1.1^3,7]dec-1-ylmethyl)-benzamide]"
2,171 to 172 °C,"CSc1ccccc1C(=O)NCC12CC3CC(CC(C3)C1)C2 [Example 18, 2-(Methylthio)-N-(tricyclo[3.3.1.1^3,7]dec-1-methyl)-benzamide]"
3,155 °C,"Cc1ccc(C)c(C(=O)NCC23CC4CC(CC(Cl)(C4)C2)C3)c1 [Example 78, 2,5-Dimethyl-N-(3-chloro-tricyclo[3.3.1.1^3,7]dec-1ylmethyl)-benzamide]"
4,162 to 163 °C,"O=C(NCC12CC3CC(CC(C3)C1)C2)c1c(F)cccc1F [Example 12, 2,6-Difluoro-N-(tricyclo[3.3.1.1^3,7]dec-1-methyl)-benzamide]"
5,130 to 131 °C,"COc1ccc(Sc2ncccc2C(=O)NCC23CC4CC(CC(C4)C2)C3)cc1 [Example 40, 2-(4-Methoxyphenylthio)-N-(tricyclo[3.3.1.1^3,7]dec-1-ylmethyl)-3-pyridine carboxamide]"
6,135 to 136 °C,"COc1ccc(OC)c(Sc2ncccc2C(=O)NCC23CC4CC(CC(C4)C2)C3)c1 [Example 37, 2-(2,5-Dimethoxyphenylthio)-N-(tricyclo[3.3.1.1^3,7]dec-1-ylmethyl)-3-pyridine carboxamide]"
7,156 to 157 °C,"O=C(NCC12CC3CC(CC(C3)C1)C2)c1ccccc1Cc1ccccc1 [Example 23, 2-(Phenylmethyl) -N-(tricyclo[3.3.1.1^3,7]dec-1-methyl)-benzamide]"
8,176 to 177 °C,"O=C(NCC12CC3CC(CC(C3)C1)C2)c1cc(F)ccc1Cl [Example 43, 2-Chloro-5-fluoro-N-(tricyclo[3.3.1.1^3,7]dec-1-ylmethyl)-benzamide]"
9,147 to 150 °C,"O=C(O)CSc1ncccc1C(=O)NCC12CC3CC(CC(C3)C1)C2 [Example 45, 3-[[(Tricyclo[3.3.1.1^3,7]dec-1-ylmethyl)amino]carbonyl]pyridyl-2-thioacetic acid]"
10,258 to 260 °C,"CN(C)CCNc1ncccc1C(=O)NCC12CC3CC(CC(C3)C1)C2 (as salt: hydrochloride) [Example 32, 2-(2-(N,N-Dimethylamino)ethylamino)-N-(tricyclo[3.3.1.1^3,7]dec-1-ylmethyl)-3-pyridine carboxamide, dihydrochloride]"
11,185 to 186 °C,COc1cccc(OC)c1C(=O)NCC12CC3CC(CC(C3)C1)C2
12,193 to 195 °C,"CN(C)CCSc1ccccc1C(=O)NCC12CC3CC(CC(C3)C1)C2 [Example 39, 2-(2-(N,N-Dimethylamino)ethylthio)-N-(tricyclo[3.3.1.1^3,7]dec-1-ylmethyl)-benzamide]"
13,166 to 169 °C,"Cc1ccc(Sc2ncccc2C(=O)NCC23CC4CC(CC(C4)C2)C3)cc1 [Example 17, 2-(4-Methylphenylthio)-N-(tricyclo[3.3.1.1^3,7]dec-1-methyl)-3-pyridine carboxamide]"
14,101 to 103 °C,"CC(C)(C)OC(=O)COc1ccccc1C(=O)NCC12CC3CC(CC(C3)C1)C2 [Example 25, 2-[[(Tricyclo[3.3.1.1^3,7]dec-1-ylmethyl)amino]carbony]phenyl-1-oxyacetic acid, 1,1-dimethylethyl ester]"
15,160 to 161 °C,"CSc1nc(C)ccc1C(=O)NCC12CC3CC(CC(C3)C1)C2 [Example 49, (2-Methylthio-6-methyl)-N-(tricyclo[3.3.1.1^3,7]dec-1-ylmethyl)-3-pyridine carboxamide]"
16,126 to 127 °C,"CSc1ccc(Cl)c(C(=O)NCC23CC4CC(CC(C4)C2)C3)c1 [Example 38, 2-Chloro-5-methylthio-N-(tricyclo[3.3.1.1^3,7]dec-1-ylmethyl)-benzamide]"
17,86 to 87 °C,"O=C(NCC12CC3CC(CC(C3)C1)C2)c1cccc(NCCNCCc2c[nH]cn2)c1Cl [Example 77, 2-Chloro-3-(N-(2-[imidazoyl-4-yl]ethyl)-2-aminoethyl)amino-N-(tricyclo[3.3.1.1^3,7]dec-1-ylmethyl)-benzamide]"
18,263 to 264 °C,"O=C(NCC12CC3CC(CC(C3)C1)C2)c1cc(O)ccc1Cl [Example 51, 2-Chloro-5-hydroxy-N-(tricyclo[3.3.1.1^3,7]dec-1-ylmethyl)-benzamide]"
19,151 to 153 °C,"O=C(NCC12CC3CC(CC(C3)C1)C2)c1c(F)cccc1C(F)(F)F [Example 13, 2-(Trifluoromethyl)-6-flouro-N-(tricyclo(3.3.1.1^3,7]dec-1-methyl)-benzamide]"
20,181 to 183 °C,CN(C)CCOc1ccccc1C(=O)NCC12CC3CC(CC(C3)C1)C2.Cl
21,173 to 175 °C,"COc1cc(OC)c(C)c(C(=O)NCC23CC4CC(CC(C4)C2)C3)c1 [Example 67, 3,5-Dimethoxy-2-methyl-N-(tricyclo[3.3.1.1^3,7]dec-1-ylmethyl)-benzamide]"
